The values below come from article PMC10648852, “Molecular drivers of resistance to sulbactam-durlobactam in contemporary clinical isolates of Acinetobacter baumannii” (Antimicrobial Agents and Chemotherapy, 2023).

Like-named read-outs stand apart in the source and are kept apart here.

The test system of experiment [1] is A. baumannii wild-type PBP3. Briefly: Acylation rate constant (kinact/Ki), fluorescence anisotropy competition with BOCILLIN
The conditions noted are these: Wildtype PBP3.

Experiment [2] relates to A. baumannii PBP3 Q488K. Described as above.
In experiment [3] the test system is A. baumannii PBP3 S390T. Also on record: method as in McLeod et al. (2018). Conditions: average ± SD, ref McLeod et al. (2018); cited from earlier work.
Experiment [4] has as its system A. baumannii PBP3 H370Y. Briefly: Acylation rate constant (kinact/Ki), fluorescence anisotropy competition with BOCILLIN
Experiment [5] concerns A. baumannii PBP3 S395F. Described as above. The conditions noted are these: variant data from McLeod et al. (2018).
Experiment [6] concerns A. baumannii PBP3 N377Y. The experiment is described as above.
The test system of experiment [7] is A. baumannii PBP3 S390T. The experiment is described as above. Conditions: variant data from McLeod et al. (2018).
Experiment [8] concerns A. baumannii PBP3 N392T. The description is as above.
Experiment [9] relates to A. baumannii PBP3 S395F. Also on record: method as in McLeod et al. (2018). Conditions: average ± SD, ref McLeod et al. (2018); cited from earlier work.
Experiment [10] has as its system isogenic A. baylyi ADP1 panel encoding wildtype or mutant PBP3. In words: Broth microdilution MIC, isogenic A. baylyi panel (PBP3 variants with or without overexpressed β-lactamases). Type of experiment: cell-based. The conditions noted are these: for MIC: Acinetobacter baylyi, A. baylyi. How it is done: To understand the effect of PBP3 variants on whole cell activity in the absence of other resistance determinants, the MIC values of sulbactam, SUL-DUR and comparator β-lactams were measured against an isogenic A. baylyi panel engineered to contain individual strains in which the endogenous PBP3 was replaced with the variant of interest.
Each of the A. baylyi panel members were then transformed with plasmids that constitutively expressed five distinct, representative β-lactamases commonly found in Acinetobacter clinical isolates (TEM-1, ADC-30, OXA-23, OXA-24 or OXA-66) and evaluated for changes in antibiotic susceptibility. […] . […] .
The isogenic A. baylyi panel used for chromosomal expression of various PBP3 mutants with or without constitutive expression of various β-lactamases were constructed as part of this study. The A. baylyi ADP1 PBP3 ORF was cloned into pUC19 with a gentamicin cassette inserted downstream of the PBP3 ORF for selection purposes. Additionally, 500 bp of flanking homology to the ADP1 genome were inserted upstream of the PBP3 ORF and downstream of the gentamicin cassette. […] Linear DNA consisting of the 500 bp upstream-PBP3-Gent-500 bp downstream fragment was cloned out of the pUC19 plasmid by PCR and used for transformation of the ADP1 strain. The strain was grown at 30°C overnight in LB medium shaking at 250 rpm. Seventy microliters of the overnight ADP1 culture were combined with 1 mL of fresh LB and 200 ng of linear DNA fragment and incubated for 5 h at 30°C and shaking at 200 rpm. Various dilutions of each culture were plated on LB agar supplemented with 10 µg/mL of gentamicin to select for transformants with successful chromosomal integrations. Integrants were verified by Sanger sequencing using purified genomic DNA.
For the constitutive expression of various β-lactamases, ORFs of bla TEM-1, bla ADC-30, bla OXA-23, bla OXA-24, and bla OXA-66 were cloned by PCR from various clinical strains that encode these genes and inserted into the pWH1266 plasmid modified to encode a kanamycin cassette for selection. These plasmids along with an empty vector were used to transform each of the A. baylyi ADP1 strains engineered above that encode wild-type PBP3 or variants. Transformations were carried out as done above with selection on LB agar supplemented with 20 µg/mL of kanamycin.
(§1) Antimicrobial susceptibility testing was performed using broth microdilution following standardized methods established by the Clinical Laboratory Standards Institute (CLSI) ([35], [36]). Quality control testing was performed as specified by CLSI using A. baumannii NCTC 13304 ([35]). MIC values were interpreted using CLSI breakpoints for all antimicrobial agents except those for which CLSI breakpoints are not available ([35]). SUL-DUR was tested as twofold dilutions of sulbactam in combination with a fixed concentration of 4 µg/mL durlobactam ([35]).
(In general: Broth dilution looks for growth in wells or tubes with falling amounts of substance.)

Experiment [11] concerns A. baumannii AB5075 and transposon mutants in efflux genes. Briefly: Broth microdilution MIC, isogenic A. baumannii transposon mutants in efflux genes. The experiment is classed as cell-based. The conditions noted are these: for In vitro activity (MIC): tested in duplicate. The procedure:
(§2) To further assess the role of efflux in SUL-DUR activity against Acinetobacter spp., two panels of A. baumannii isogenic strains were tested. The first consisted of 7 members of an A. baumannii transposon library ([28]) with single gene disruptions in the adeABC, adeIJK, or adeT loci as compared to the parent strain, AB5075. […] This panel of strains consists of four different point mutants in AdeR and five different point mutants in AdeS, which result in the upregulation of AdeABC expression. In addition, this panel contains chromosomal deletions of adeL and adeN, which result in overexpression of AdeFGH and AdeIJK, respectively ([29]).
The parent and each isogenic mutant strain in both panels was measured for susceptibility to sulbactam, durlobactam, SUL-DUR, imipenem, and gentamicin. […].
(§3) The AB5075 parent strain as well as transposon interrupted AdeABC, AdeIJK, and AdeT were purchased from the Manoil laboratory at the University of Washington from their arrayed transposon mutant collection ([28]). The KAB1544 parent as well as efflux pump regulator mutants and deletions were constructed as previously described ([29]).
as §1

Experiment [12] deals with A. baumannii KAB1544 and efflux overexpression mutants. In words: Broth microdilution MIC, isogenic A. baumannii overexpression efflux mutants. The experiment is classed as cell-based. The conditions noted are these: for MIC: Acinetobacter baumannii. The procedure:
as §2
In contrast, sulbactam, SUL-DUR, and imipenem MIC values were unaffected by these mutants (Table 4).
as §3, §1

The mark [13] stands for this setting: AdeR A91V, AdeABC overexpressed, read-out: MIC.
Where [14] appears, read: AdeR D20N, AdeABC overexpressed, read-out: MIC.
Setting [15] is: AdeR E219A, AdeABC overexpressed, read-out: MIC.
[16] abbreviates: AdeR P116L, AdeABC overexpressed, read-out: MIC.
Where [17] appears, read: AdeS A94V, AdeABC overexpressed, read-out: MIC.
[18] abbreviates: AdeS G30D, AdeABC overexpressed, read-out: MIC.
Where [19] appears, read: AdeS G103D, AdeABC overexpressed, read-out: MIC.
Setting [20] is: AdeS R152K, AdeABC overexpressed, read-out: MIC.
Setting [21] is: AdeS T153M, AdeABC overexpressed, read-out: MIC.
[22] abbreviates: Parent (KAB1544), no efflux pump overexpressed, read-out: MIC.

In general, MIC refers to the lowest concentration that inhibits growth of the organism.

In the case of `C[C@H]1[C@H](NC(=O)/C(=N\OC(C)(C)C(=O)O)c2csc(N)n2)C(=O)N1S(=O)(=O)O` [aztreonam], the “% WT” value is 100% in experiment [1]; 65.7% in experiment [2]; 61.4% in [4]; 15.7% in experiment [5]; 72.9% in experiment [6]; 128.6% in experiment [7]. Besides, in [8], the “% WT” value turned out to be 22.9%. The “k inact/K i” value in experiment [1] (average ± SD) is 700 ± 100 ([10]) M^-1s^-1; in experiment [2] (average ± SD), 460 ± 50 ([2]) M^-1s^-1; in experiment [3], 900 ± 300 ([3]) M^-1s^-1; in experiment [4] (average ± SD) it was 430 ± 30 ([2]) M^-1s^-1; in experiment [6] (average ± SD) it was 510 ± 60 ([2]) M^-1s^-1; in experiment [8] (average ± SD), 160 ± 20 ([2]) M^-1s^-1. For the same compound, in [9], the “k inact/K i” value is 110 ± 20 ([3]) M^-1s^-1. In addition, the MIC was determined as 32 µg/mL in experiment [10] (PBP3 H370Y, overexpressed ADC-30); 64 µg/mL in experiment [10] (PBP3 H370Y, overexpressed OXA-23); 64 µg/mL in [10] (PBP3 H370Y, overexpressed OXA-24); 64 µg/mL in experiment [10] (PBP3 H370Y, overexpressed OXA-66); 64 µg/mL in [10] (PBP3 H370Y, overexpressed TEM-1); 64 µg/mL in experiment [10] (PBP3 H370Y, β-lactamase None (empty vector)). In addition, the MIC amounted to 32 µg/mL in experiment [10] (PBP3 Wildtype, overexpressed ADC-30, read-out: MIC); 64 µg/mL in experiment [10] (PBP3 Wildtype, overexpressed OXA-23, read-out: MIC); 32 µg/mL in [10] (PBP3 Wildtype, overexpressed OXA-24, read-out: MIC); 32 µg/mL in experiment [10] (PBP3 Wildtype, overexpressed OXA-66, read-out: MIC); 32 µg/mL in [10] (PBP3 Wildtype, overexpressed TEM-1, read-out: MIC); 32 µg/mL in experiment [10] (PBP3 Wildtype, β-lactamase None (empty vector), read-out: MIC). Moreover, the “changes in MIC values in the presence of β-lactamase” value in [10] (wildtype PBP3 strain, five overexpressed β-lactamases) is at most 2 fold.
In the case of `CNC(C)C1CCC(N)C(OC2C(N)CC(N)C(OC3OCC(C)(O)C(NC)C3O)C2O)O1` (stereo not drawn) [gentamicin], the “MIC shift as compared to the parent strain” value in [11] (AdeA disruption, AB5075) is reported as above 64 fold; in experiment [11] (AdeB disruption, AB5075), above 8 fold. Further, the In vitro activity (MIC) in [11] (Parent (AB5075)) is above 64 µg/mL; in [11] (adeA::tn in AB5075) it was 1 µg/mL; in [11] (adeB::tn in AB5075), 8 µg/mL; in [11] (adeC::tn in AB5075) it was above 64 µg/mL; in experiment [11] (adeI::tn in AB5075), above 64 µg/mL; in experiment [11] (adeJ::tn in AB5075), above 64 µg/mL. The In vitro activity (MIC) in experiment [11] (adeK::tn in AB5075) and in [11] (adeT::tn in AB5075) was above 64 µg/mL in each case. Also, the MIC in experiment [12] (setting [13]) came out at 32 µg/mL; in experiment [12] (setting [14]) it was 16 µg/mL; in experiment [12] (setting [15]), 2 µg/mL; in experiment [12] (setting [16]), 16 µg/mL; in experiment [12] (setting [17]), 16 µg/mL; in experiment [12] (setting [18]), 32 µg/mL. Besides, the MIC in experiment [12] (setting [19]) came to 2 µg/mL; in [12] (setting [20]), 16 µg/mL; in experiment [12] (setting [21]), 32 µg/mL; in experiment [12] (setting [22]) it was 2 µg/mL; in experiment [12] (ΔadeL, AdeFGH overexpressed) it was 2 µg/mL; in [12] (ΔadeN, AdeIJK overexpressed) it was 2 µg/mL. In addition, the “change in MIC values relative to the parent strain” value in experiment [12] ({}) is 8- to 16 fold.
On to `CC1=C[C@@H]2CN(C(=O)N2OS(=O)(=O)O)[C@@H]1C(N)=O` [durlobactam], for which the In vitro activity (MIC) in [11] (Parent (AB5075)) is 128 µg/mL; in [11] (adeA::tn in AB5075), 64 µg/mL; in experiment [11] (adeB::tn in AB5075), 256 µg/mL; in experiment [11] (adeC::tn in AB5075), 256 µg/mL; in experiment [11] (adeI::tn in AB5075), 64 µg/mL; in experiment [11] (adeJ::tn in AB5075) it was 32 µg/mL. Besides, the results for the In vitro activity (MIC) in experiment [11] (adeK::tn in AB5075) and in [11] (adeT::tn in AB5075) were 32 µg/mL and 128 µg/mL, respectively. Also, the “changes in MIC values as compared to the parent strain” value is reported as 4 fold in experiment [11] (adeK::Tn mutant, AB5075) and 4 fold in experiment [11] ({}). For the same compound, the minimum inhibitory concentration (MIC) was determined as 32 µg/mL in experiment [12] (setting [13]); 64 µg/mL in [12] (setting [14]); 128 µg/mL in experiment [12] (setting [15]); 64 µg/mL in [12] (setting [16]); 64 µg/mL in [12] (setting [17]); 64 µg/mL in experiment [12] (setting [18]). Besides, the MIC in [12] (setting [19]) turned out to be 64 µg/mL; in experiment [12] (setting [20]) it was 64 µg/mL; in [12] (setting [21]), 32 µg/mL; in [12] (setting [22]), 128 µg/mL; in experiment [12] (ΔadeL, AdeFGH overexpressed) it was 64 µg/mL; in experiment [12] (ΔadeN, AdeIJK overexpressed), 128 µg/mL.
